Data from patent publication US6337402B2, “Asymmetrical bisbenzotriazoles substituted by a perfluoroalkyl moiety and compositions stabilized therewith” (Ciba Specialty Chemicals Corporation, priority 1999, dated 2002).

Assay: Bisbenzotriazole solubility in adhesive GELVA 263
Format: physicochemical
Settings: in GELVA 263 polyacrylate adhesive; approximate maximum concentration with no sign of crystallization after solvent evaporation; weight added to GELVA 263 as is
Description: To measure the solubility of the instant bisbenzotriazole UV absorber in an adhesive composition, the compound is added to a typical adhesive GELVA® 263 (Solutia) which is a 44.5% solution of a polyacrylate in a mixture of ethyl acetate and hexane. The polyacrylate is a copolymer of methyl methacrylate, 2-ethylhexyl methacrylate and glycidyl methacrylate.
The test compound is dissolved in 5 mL of ethyl acetate, toluene or a mixture of ethyl acetate and toluene. To the solution is added 5 g of GELVA® 263. 2-3 mL of the resulting solution is place into individual watch glasses. Solubility is then evaluated based upon observed crystallization once the solvent has evaporated. Observations start after several hours and then continue over a period of several weeks.
Solubilities are reported in weight of total bisbenzotriazole added to GELVA® 263 as is.

For `CC(C)(C)CC(C)(C)c1cc(Cc2cc(C(C)(C)CC(C)(C)C)cc(-n3nc4ccc(C(F)(F)F)cc4n3)c2O)c(O)c(-n2nc3ccc(C(F)(F)F)cc3n2)c1` [E, 2,2′-methylene-bis[6-(5-trifluoromethyl-2H-benzotriazol-2-yl)-4-tert-octylphenol]], which “Solubility without Crystallization (%)” value is on record?
Its value is 4.0%.

For `CC(C)(C)CC(C)(C)c1cc(Cc2cc(C(C)(C)C)cc(-n3nc4ccc(S(=O)(=O)c5ccccc5)cc4n3)c2O)c(O)c(-n2nc3ccc(C(F)(F)F)cc3n2)c1` [G, Methylene-2-[4-tert-butyl-6-(5-phenylsulfonyl-2H-benzotriazol-2-yl)phenol]-2′-[4-tert-octyl-6-(5-trifluoromethyl-2H-benzotriazol-2-yl)phenol]], which “Solubility without Crystallization (%)” value is on record?
The value was 22.0%.

With `CC(C)(C)CC(C)(C)c1cc(Cc2cc(C(C)(C)C)cc(-n3nc4ccc(Cl)cc4n3)c2O)c(O)c(-n2nc3ccc(C(F)(F)F)cc3n2)c1` [F, Methylene-2-[4-tert-butyl-6-(5-chloro-2H-benzotriazol-2-yl)phenol]-2 ′-[4-tert-octyl-6-(5-trifluoromethyl-2H-benzotriazol-2-yl)phenol]] as the molecule, how does the “Solubility without Crystallization (%)” value read?
Its value is 11.0%.

Which “Solubility without Crystallization (%)” value does the source give for `CC(C)(C)CC(C)(C)c1cc(Cc2cc(C(C)(C)C)cc(-n3nc4ccc(Sc5ccccc5)cc4n3)c2O)c(O)c(-n2nc3ccc(C(F)(F)F)cc3n2)c1` [H, Methylene-2-[4-tert-butyl-6-(5-phenylthio-2H-benzotriazol-2-yl)phenol]-2′-[4-tert-octyl-6-(5-trifluoromethyl-2H-benzotriazol-2-yl)phenol]] here?
Its value is 22.0%.

Which “Solubility without Crystallization (%)” value does the source give for `CC(C)(c1ccccc1)c1cc(-n2nc3ccccc3n2)c(O)c(C(C)(C)c2ccccc2)c1` [B, 2-(2-hydroxy-3,5-di-α-cumylphenyl)-2H-benzotriazole] here?
Its value is 2.0%.

Which “Solubility without Crystallization (%)” value does the source give for `CC(C)(C)c1cc(Cc2cc(C(C)(C)C)cc(-n3nc4ccc(S(=O)(=O)c5ccccc5)cc4n3)c2O)c(O)c(-n2nc3ccc(S(=O)(=O)c4ccccc4)cc3n2)c1` [A, 2,2′-Methylene-bis[6-(5-phenylsulfonyl-2H-benzotriazol-2-yl)-4-tert-butylphenol]] here?
The value was 0.0%.

For `CC(C)(C)c1cc(-n2nc3ccc(Cl)cc3n2)c(O)c(C(C)(C)C)c1` [C, 5-chloro-2-(2-hydroxy-3,5-di-tert-butylphenyl)-2H-benzotriazole], which “Solubility without Crystallization (%)” value is on record?
Its value is 2.0%.

For `CC(C)(C)CC(C)(C)c1cc(Cc2cc(C(C)(C)CC(C)(C)C)cc(-n3nc4ccc(C(F)(F)F)cc4n3)c2O)c(O)c(-n2nc3ccccc3n2)c1` [D, methylene-2-[4-tert-octyl-6-(2H-benzotriazol-2-yl)phenol]-2′-[4-tert-octyl-6-(5-trifluoromethyl-2H-benzotriazol-2-yl)phenol]], which “Solubility without Crystallization (%)” value is on record?
Its value is 2.0%.

Assay: not given
Settings: not given

Which melting point does the source give for `CC(C)(C)c1cc(Cc2cc(C(C)(C)C)cc(-n3nc4ccc(S(=O)(=O)c5ccccc5)cc4n3)c2O)c(O)c(-n2nc3ccc(S(=O)(=O)c4ccccc4)cc3n2)c1` [A, 2,2′-Methylene-bis[6-(5-phenylsulfonyl-2H-benzotriazol-2-yl)-4-tert-butylphenol]] here?
Its melting point is 224 to 234 °C.
